PubChem BioAssay AID256 (DTP/NCI, 2004)
Toxic doses and inconclusive results are not listed.

Tested on: CD2F1 mice, L1210 leukemia ip, survival T/C
Assay: NCI In Vivo Anticancer Drug Screen. Data for tumor model L1210 Leukemia (intraperitoneal) in CD2F1 (CDF1) mice
Conditions: higher = longer survival
Procedure: The antitumor activity of compounds was measured in mice bearing transplantable tumors. Survival or tumor size were measured and the results are expressed as the measurement made in the treated group (T) divided by the measurement made in the vehicle treated control group (C). The tumor model used in this assay is L1210 Leukemia (intraperitoneal) in CD2F1 (CDF1) mice

[1] = endpoint: mean survival time, dose: 100.0 mg/kg/injection, schedule: Q01DX009 (ip), vehicle: saline with Tween-80
[2] = endpoint: mean survival time, dose: 200.0 mg/kg/injection, schedule: Q01DX009 (ip), vehicle: saline with Tween-80

For `CCOCCC#N`, the T/C (endpoint: mean survival time, dose: 50.0 mg/kg/injection, schedule: Q01DX009 (ip), vehicle: Klucel (hydroxypropylcellulose) (HPC)) was 102 % of control, the T/C (endpoint: mean survival time, dose: 100.0 mg/kg/injection, schedule: Q01DX009 (ip), vehicle: Klucel (hydroxypropylcellulose) (HPC)) was 102 % of control and the T/C (endpoint: mean survival time, dose: 200.0 mg/kg/injection, schedule: Q01DX009 (ip), vehicle: Klucel (hydroxypropylcellulose) (HPC)) was 102 % of control.

For `COc1ccc(-c2ccc(-c3ccc(S(=O)(=O)c4ccc(-c5ccc(-c6ccc(OC)cc6)cc5)c(N)c4)cc3N)cc2)cc1`, the T/C [1] was 110 % of control, the T/C [2] was 89 % of control and the T/C (endpoint: mean survival time, dose: 400.0 mg/kg/injection, schedule: Q01DX009 (ip), vehicle: saline with Tween-80) was 89 % of control.

For `O=C1c2ccccc2C(=O)N1CC/C=C/c1ccc([N+](=O)[O-])cc1Cl`, the T/C (endpoint: mean survival time, dose: 100.0 mg/kg/injection, schedule: Q04DX003 (ip), vehicle: saline with Tween-80) was 98 % of control, the T/C (endpoint: mean survival time, dose: 200.0 mg/kg/injection, schedule: Q04DX003 (ip), vehicle: saline with Tween-80) was 91 % of control and the T/C (endpoint: mean survival time, dose: 400.0 mg/kg/injection, schedule: Q04DX003 (ip), vehicle: saline with Tween-80) was 100 % of control.

With `Nc1ccn(C2OC(CO)C(OP(=O)(O)O)C2O)c(=O)n1` (centres undefined) the T/C (endpoint: mean survival time, dose: 4.4 mg/kg/injection, schedule: Q03HX024 (ip), vehicle: saline) was 229 % of control, the T/C (endpoint: mean survival time, dose: 8.7 mg/kg/injection, schedule: Q03HX024 (ip), vehicle: saline) was 252 % of control and the T/C (endpoint: mean survival time, dose: 17.4 mg/kg/injection, schedule: Q03HX024 (ip), vehicle: saline) was 296 % of control. For the same molecule, the T/C (endpoint: mean survival time, dose: 34.8 mg/kg/injection, schedule: Q03HX024 (ip), vehicle: saline) was 111 % of control, the T/C (endpoint: mean survival time, dose: 200.0 mg/kg/injection, schedule: Q01DX009 (oral), vehicle: saline) was 159 % of control and the T/C (endpoint: mean survival time, dose: 400.0 mg/kg/injection, schedule: Q01DX009 (oral), vehicle: saline) was 175 % of control.

`O=S(=O)(O)SCC1NCCCN1` was tested, and the T/C (endpoint: mean survival time, dose: 12.5 mg/kg/injection, schedule: Q04DX002 (ip), vehicle: saline) was 108 % of control, the T/C (endpoint: mean survival time, dose: 25.0 mg/kg/injection, schedule: Q04DX002 (ip), vehicle: saline) was 101 % of control and the T/C (endpoint: mean survival time, dose: 50.0 mg/kg/injection, schedule: Q04DX002 (ip), vehicle: saline) was 101 % of control.

With `CN=C(NC)c1ccc(NC(=O)/C=C\c2ccc(/C=C/C(=O)Nc3ccc(C(=NC)NC)cc3)cc2)cc1` the T/C (endpoint: median survival time, dose: 1.5 mg/kg/injection, schedule: Q01DX009 (ip), vehicle: Klucel (hydroxypropylcellulose) (HPC)) was 112 % of control, the T/C (endpoint: median survival time, dose: 3.0 mg/kg/injection, schedule: Q01DX009 (ip), vehicle: Klucel (hydroxypropylcellulose) (HPC)) was 124 % of control and the T/C (endpoint: median survival time, dose: 3.12 mg/kg/injection, schedule: Q01DX009 (ip), vehicle: Klucel (hydroxypropylcellulose) (HPC)) was 151 % of control. For the same molecule, the T/C (endpoint: median survival time, dose: 6.0 mg/kg/injection, schedule: Q01DX009 (ip), vehicle: Klucel (hydroxypropylcellulose) (HPC)) was 181 % of control, the T/C (endpoint: median survival time, dose: 6.25 mg/kg/injection, schedule: Q01DX009 (ip), vehicle: Klucel (hydroxypropylcellulose) (HPC)) was 186 % of control and the T/C (endpoint: median survival time, dose: 12.0 mg/kg/injection, schedule: Q01DX009 (ip), vehicle: Klucel (hydroxypropylcellulose) (HPC)) was 124 % of control. For the same molecule, the T/C (endpoint: median survival time, dose: 12.5 mg/kg/injection, schedule: Q01DX009 (ip), vehicle: Klucel (hydroxypropylcellulose) (HPC)) was 124 % of control.

In the case of `CC(C)n1cnc2c(=S)nc[nH]c21`, the T/C (endpoint: mean survival time, dose: 41.0 mg/kg/injection, schedule: Q01DX Z (ip), vehicle: saline) is reported as 121 % of control and the T/C (endpoint: mean survival time, dose: 94.0 mg/kg/injection, schedule: Q01DX Z (ip), vehicle: saline) is reported as 171 % of control.

With `O=C1C2=C(CCCC2)CN1c1ccccc1` the T/C (endpoint: mean survival time, dose: 50.0 mg/kg/injection, schedule: Q01DX009 (ip), vehicle: saline with Tween-80) was 98 % of control, the T/C [1] was 98 % of control and the T/C [2] was 107 % of control.

`CC(C)(c1ccc(Nc2ccccc2)cc1)c1ccc(Nc2ccccc2)cc1` was tested, and the T/C (endpoint: mean survival time, dose: 100.0 mg/kg/injection, schedule: Q04DX003 (ip), vehicle: Klucel (hydroxypropylcellulose) (HPC)) was 96 % of control, the T/C (endpoint: mean survival time, dose: 200.0 mg/kg/injection, schedule: Q04DX003 (ip), vehicle: Klucel (hydroxypropylcellulose) (HPC)) was 96 % of control and the T/C (endpoint: mean survival time, dose: 400.0 mg/kg/injection, schedule: Q04DX003 (ip), vehicle: Klucel (hydroxypropylcellulose) (HPC)) was 92 % of control.

For `Cc1cccc(C)c1OC(=O)Cl`, the T/C (endpoint: mean survival time, dose: 5.0 mg/kg/injection, schedule: Q01DX001 (ip), vehicle: saline) was 98 % of control, the T/C (endpoint: mean survival time, dose: 10.0 mg/kg/injection, schedule: Q01DX001 (ip), vehicle: saline) was 97 % of control and the T/C (endpoint: mean survival time, dose: 20.0 mg/kg/injection, schedule: Q01DX001 (ip), vehicle: saline) was 97 % of control. For the same molecule, the T/C (endpoint: mean survival time, dose: 40.0 mg/kg/injection, schedule: Q01DX001 (ip), vehicle: saline) was 97 % of control.

In the case of `CCCCNC(C)(C)C(SS)c1ccc(C(F)(F)F)cc1` (centres undefined), the T/C (endpoint: mean survival time, dose: 100.0 mg/kg/injection, schedule: Q04DX003 (ip), vehicle: other) is reported as 94 % of control and the T/C (endpoint: mean survival time, dose: 400.0 mg/kg/injection, schedule: Q04DX003 (ip), vehicle: other) is reported as 86 % of control.
